Measured values from patent US9150579B2, “Selective PI3K delta inhibitors” (Rhizen Pharmaceuticals SA, priority 2012, dated 2015).

Key:
[1] = Metabolic stability in mouse liver microsomes; format: in vitro ADME; conditions: 1 μM test item, 60 minutes, NADPH
Method: (§1) Metabolic stability studies were conducted using mouse, rat, and human liver microsomes. The protocol for the studies with mouse, rat, and human liver microsomes (all from BD Gentest, USA) is provided below. In brief, 0.4 mg protein was preincubated with 2 mM NADPH (cofactor) in phosphate buffer (pH˜7.4) for 15 min at 37° C. and then added with 1 μM test item and incubated further for 60 minutes in triplicate. The reaction mixture was terminated with methanol containing an internal standard and centrifuged further to analyze the test item remaining in the supernatant by LC-MS/MS. The percent parent compound remaining was calculated in comparison with similar samples terminated at 0 minutes.

[2] = Metabolic stability in rat liver microsomes; format: in vitro ADME; conditions: 1 μM test item, 60 minutes, NADPH
Method: as §1

[3] = Metabolic stability in human liver microsomes; format: in vitro ADME
Method: as §1

PI3K delta = PI3K delta (Homo sapiens (Human), UniProt O00329); test: Assay 1: Fluorescent (HTRF) determination of PI3K enzyme activity, delta; format: biochemical
Sequence of PI3K delta (O00329 whole entry, canonical isoform): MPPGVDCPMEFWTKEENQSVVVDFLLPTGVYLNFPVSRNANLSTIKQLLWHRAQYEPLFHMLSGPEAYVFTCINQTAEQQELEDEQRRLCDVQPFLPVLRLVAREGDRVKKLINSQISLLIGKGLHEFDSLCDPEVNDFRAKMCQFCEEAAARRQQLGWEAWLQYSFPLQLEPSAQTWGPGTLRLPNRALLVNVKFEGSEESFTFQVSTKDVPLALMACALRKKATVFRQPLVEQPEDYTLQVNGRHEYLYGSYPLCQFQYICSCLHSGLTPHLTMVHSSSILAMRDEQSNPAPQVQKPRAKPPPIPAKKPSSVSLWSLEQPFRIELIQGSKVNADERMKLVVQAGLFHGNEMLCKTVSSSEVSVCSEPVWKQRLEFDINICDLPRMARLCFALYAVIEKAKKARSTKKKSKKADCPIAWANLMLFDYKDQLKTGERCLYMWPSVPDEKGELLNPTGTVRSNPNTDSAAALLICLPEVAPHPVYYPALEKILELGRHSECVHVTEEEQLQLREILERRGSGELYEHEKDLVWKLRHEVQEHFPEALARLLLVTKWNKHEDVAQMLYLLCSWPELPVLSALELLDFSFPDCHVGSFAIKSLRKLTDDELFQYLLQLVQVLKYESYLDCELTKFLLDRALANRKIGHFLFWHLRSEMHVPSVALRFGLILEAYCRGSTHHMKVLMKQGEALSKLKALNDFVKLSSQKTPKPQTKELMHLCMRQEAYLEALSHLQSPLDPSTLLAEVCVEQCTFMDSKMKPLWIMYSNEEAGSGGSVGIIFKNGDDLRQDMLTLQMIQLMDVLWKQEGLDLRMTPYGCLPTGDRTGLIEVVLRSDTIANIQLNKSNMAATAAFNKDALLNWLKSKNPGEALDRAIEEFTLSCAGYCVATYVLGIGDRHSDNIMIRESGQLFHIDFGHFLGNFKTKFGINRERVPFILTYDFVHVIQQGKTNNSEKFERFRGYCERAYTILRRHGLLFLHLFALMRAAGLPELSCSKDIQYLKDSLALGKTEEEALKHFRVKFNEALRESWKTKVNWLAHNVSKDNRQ
Sequence of PI3K delta (P27986 whole entry partner, canonical isoform): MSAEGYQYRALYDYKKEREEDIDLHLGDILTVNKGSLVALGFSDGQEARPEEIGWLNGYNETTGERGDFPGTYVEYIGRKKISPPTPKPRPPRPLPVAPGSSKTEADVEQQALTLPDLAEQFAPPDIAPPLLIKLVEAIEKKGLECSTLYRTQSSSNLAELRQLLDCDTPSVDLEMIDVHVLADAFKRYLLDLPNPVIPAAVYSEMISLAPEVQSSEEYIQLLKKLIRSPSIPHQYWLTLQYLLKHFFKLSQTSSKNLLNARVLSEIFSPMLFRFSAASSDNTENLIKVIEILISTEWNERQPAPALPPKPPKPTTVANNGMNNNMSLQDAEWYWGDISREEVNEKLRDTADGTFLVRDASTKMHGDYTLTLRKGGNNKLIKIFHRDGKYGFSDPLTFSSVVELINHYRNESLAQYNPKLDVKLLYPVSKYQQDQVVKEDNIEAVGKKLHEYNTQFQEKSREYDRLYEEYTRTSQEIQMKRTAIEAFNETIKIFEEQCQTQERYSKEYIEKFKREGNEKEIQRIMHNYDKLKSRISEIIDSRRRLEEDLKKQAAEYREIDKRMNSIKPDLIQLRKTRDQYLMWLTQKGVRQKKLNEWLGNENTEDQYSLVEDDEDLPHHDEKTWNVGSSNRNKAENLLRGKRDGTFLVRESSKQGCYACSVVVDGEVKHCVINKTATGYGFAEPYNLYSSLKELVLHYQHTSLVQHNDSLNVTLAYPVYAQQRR
Method: (§2) The homogenous time resolved fluorescence (HTRF) assay allows detection of 3,4,5-triphosphate (PIP3) formed as a result of phosphorylation of phosphotidylinositol 4,5-biphosphate (PIP2) by PI3K isoforms such as α, β, γ or δ.
(§3) PI3K isoform activity for α, β, γ or δ was determined using a PI3K human HTRF™ Assay Kit (Millipore, Billerica, Mass.) with modifications. All incubations were carried out at room temperature. […] After the initial incubation, 5 μl/well of 400 μM ATP was added and incubated for an additional 30 minutes. Reaction was terminated by adding 5 μl/well stop solution (Millipore, Billerica, Mass.). Five microliters of detection mix (Millipore, Billerica, Mass.) were then added to each well and was incubated for 6-18 h in the dark. HRTF ratio was measured on a microplate reader (BMG Labtech., Germany) at an excitation wavelength of 337 nm and emission wavelengths of 665 and 620 nm with an integration time of 400 μsec.

PI3K β = PI3K β (Homo sapiens (Human), UniProt P42338); test: Assay 1: Fluorescent (HTRF) determination of PI3K enzyme activity, beta; format: biochemical
Sequence of PI3K β (P42338 whole entry): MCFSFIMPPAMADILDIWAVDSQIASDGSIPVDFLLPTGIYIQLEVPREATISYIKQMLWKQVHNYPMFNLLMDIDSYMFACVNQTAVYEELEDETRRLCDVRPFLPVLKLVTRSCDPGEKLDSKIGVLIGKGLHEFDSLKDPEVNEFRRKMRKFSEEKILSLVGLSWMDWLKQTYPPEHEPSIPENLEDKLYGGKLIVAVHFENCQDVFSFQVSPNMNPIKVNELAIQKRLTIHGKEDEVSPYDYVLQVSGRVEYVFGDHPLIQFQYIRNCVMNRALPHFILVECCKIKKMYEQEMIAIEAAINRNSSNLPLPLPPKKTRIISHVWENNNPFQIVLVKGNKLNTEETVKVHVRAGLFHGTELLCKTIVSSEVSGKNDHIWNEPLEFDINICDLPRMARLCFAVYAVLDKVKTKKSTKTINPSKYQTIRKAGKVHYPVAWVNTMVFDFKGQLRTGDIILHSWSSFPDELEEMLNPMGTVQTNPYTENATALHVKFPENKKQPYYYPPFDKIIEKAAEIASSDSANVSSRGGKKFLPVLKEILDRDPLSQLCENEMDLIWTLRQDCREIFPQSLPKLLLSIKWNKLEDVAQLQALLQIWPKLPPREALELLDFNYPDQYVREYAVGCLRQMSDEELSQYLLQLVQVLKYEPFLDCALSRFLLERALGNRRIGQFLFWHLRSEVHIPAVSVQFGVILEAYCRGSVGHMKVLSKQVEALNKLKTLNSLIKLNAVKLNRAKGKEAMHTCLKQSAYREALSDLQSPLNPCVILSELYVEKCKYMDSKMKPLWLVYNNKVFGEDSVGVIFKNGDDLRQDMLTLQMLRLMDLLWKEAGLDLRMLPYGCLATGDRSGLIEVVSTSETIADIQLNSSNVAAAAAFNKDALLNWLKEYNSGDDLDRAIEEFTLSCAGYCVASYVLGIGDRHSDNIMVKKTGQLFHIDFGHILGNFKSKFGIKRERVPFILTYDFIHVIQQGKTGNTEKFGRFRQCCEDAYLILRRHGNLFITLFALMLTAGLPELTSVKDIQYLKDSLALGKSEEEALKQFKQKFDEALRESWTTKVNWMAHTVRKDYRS
Sequence of PI3K β (P27986 whole entry partner): as the sequence (P27986 whole entry partner, canonical isoform) above
Method: as §2
as §3, with “dark.” for “dark. HRTF ratio was measured on a microplate reader (BMG Labtech., Germany) at an excitation wavelength of 337 nm and emission wavelengths of 665 and 620 nm with an integration time of 400 μsec.”

PI3K γ = PI3K γ (Homo sapiens (Human), UniProt P48736); test: Assay 1: Fluorescent (HTRF) determination of PI3K enzyme activity, gamma; format: biochemical
Sequence of PI3K γ (P48736 whole entry): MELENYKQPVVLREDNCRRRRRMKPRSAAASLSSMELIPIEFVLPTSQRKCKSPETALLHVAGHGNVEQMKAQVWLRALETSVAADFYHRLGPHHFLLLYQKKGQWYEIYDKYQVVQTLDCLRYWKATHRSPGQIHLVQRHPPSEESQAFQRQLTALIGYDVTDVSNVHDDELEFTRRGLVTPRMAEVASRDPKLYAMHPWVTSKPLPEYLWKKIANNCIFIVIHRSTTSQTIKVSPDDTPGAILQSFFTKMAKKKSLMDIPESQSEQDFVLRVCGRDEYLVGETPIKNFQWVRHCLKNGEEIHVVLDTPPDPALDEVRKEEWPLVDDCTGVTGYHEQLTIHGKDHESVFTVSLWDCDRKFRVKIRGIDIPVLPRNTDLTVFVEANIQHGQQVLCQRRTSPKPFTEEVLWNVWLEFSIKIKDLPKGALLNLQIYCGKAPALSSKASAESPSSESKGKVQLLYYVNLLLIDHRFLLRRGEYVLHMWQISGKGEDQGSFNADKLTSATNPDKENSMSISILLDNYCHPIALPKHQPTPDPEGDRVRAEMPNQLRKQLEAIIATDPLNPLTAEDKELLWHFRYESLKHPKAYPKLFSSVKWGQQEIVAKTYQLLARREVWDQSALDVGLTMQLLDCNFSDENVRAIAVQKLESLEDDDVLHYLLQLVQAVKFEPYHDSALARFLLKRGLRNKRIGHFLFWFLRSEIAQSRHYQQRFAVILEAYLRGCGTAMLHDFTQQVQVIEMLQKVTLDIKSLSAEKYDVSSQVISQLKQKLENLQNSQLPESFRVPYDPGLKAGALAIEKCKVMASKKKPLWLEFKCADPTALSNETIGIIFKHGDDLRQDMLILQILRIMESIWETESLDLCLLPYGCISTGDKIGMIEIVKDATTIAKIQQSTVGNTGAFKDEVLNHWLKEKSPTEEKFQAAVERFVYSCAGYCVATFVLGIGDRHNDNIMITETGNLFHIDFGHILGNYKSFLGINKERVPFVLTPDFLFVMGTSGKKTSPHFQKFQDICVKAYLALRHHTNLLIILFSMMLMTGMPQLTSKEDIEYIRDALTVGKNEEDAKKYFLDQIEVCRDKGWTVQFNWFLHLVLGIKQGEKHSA
Method: as §2
as §3, with “dark.” for “dark. HRTF ratio was measured on a microplate reader (BMG Labtech., Germany) at an excitation wavelength of 337 nm and emission wavelengths of 665 and 620 nm with an integration time of 400 μsec.”

[4] = test system: AKT phosphorylation in THP-1, HL-60, MOLT-4, RPMI-8226, or DLBCL cells; test: Assay 3: Inhibition of AKT phosphorylation in leukemic cell lines; format: cell-based; conditions: 48 hours, Western Blotting
Method: Inhibition of AKT phosphorylation in leukemic cell lines: THP-1, HL-60, MOLT-4, RPMI-8226, or DLBCL cells were incubated with desired concentrations of compound for 48 hours. Cells were lysed and pAKT was determined by Western Blotting. Bands were quantified using ImageJ and normalized to actin.

PI3Kδ = PI3Kδ (Homo sapiens (Human), UniProt O00329); test: Assay 4a: IgM-induced B cell proliferation assay (PI3Kδ); conditions: Cell-based
Sequence of PI3Kδ (O00329 whole entry, canonical isoform): as the sequence (O00329 whole entry, canonical isoform) above
Sequence of PI3Kδ (P27986 whole entry partner, canonical isoform): as the sequence (P27986 whole entry partner, canonical isoform) above
Method: (§4) Compound specificity towards PI3Kδ was determined in an IgM-induced B cell proliferation assay. B-cells isolated from blood of healthy subjects were seeded in a 96-well tissue culture plate and incubated with desired concentrations of compound for 30 min. Cells were stimulated with 5 μg/ml purified goat anti-human IgM. Growth was assessed using the 3-[4,5-dimethylthiazol-2-yl]-2,5-diphenyltetrazolium bromide (MTT) dye reduction test. For selectivity against PI3K α, β, or γ isoforms, NIH-3T3 or RAW macrophages were seeded in a 6-well tissue culture plate and incubated overnight. Complete medium was replaced with serum-free media the following day and compound at the desired concentrations were added. After 15 minutes, 20 ng/ml PDGF, 5 μM LPA, or 50 ng/ml c5a was added and incubated for an additional 10 minutes. Cells were lysed and AKT phosphorylation was determined by Western Blotting. Intensity of the bands was determined using ImageJ 1.42q (NIH, USA) and normalized to Actin (loading control).

PI3Kα = PI3Kα (Mus musculus (Mouse), UniProt P42337); conditions: Cell-based; versus PI3Kδ
Method: as §4

PI3Kβ = PI3Kβ (Mus musculus (Mouse), UniProt Q8BTI9); conditions: Cell-based; versus PI3Kδ
Method: as §4

PI3Kγ = PI3Kγ (Mus musculus (Mouse), UniProt Q9JHG7); conditions: Cell-based; versus PI3Kδ
Method: as §4

[5] = test system: pAKT in AML patient bone marrow leukemic cells; test: Assay 6-II: pAKT analysis of AML patient bone marrow sample (pAKT ELISA); format: cell-based, human
Method: 6-II: pAKT analysis of AML patient bone marrow sample using pAKT ELISA kit: Mononuclear cells were extracted by the Ficoll method and seeded in plates. The cells were treated by different compounds for 48 hrs before they were analyzed by pAKT ELISA kit following the product protocol. Briefly, 1×10^6 cells were transferred into an ELISA kit well and lyzed with 10 μL 5× Cell Lysis Mix (phospho-AKT 1/2/3 (Ser473) InstantOne™ ELISA Kit, eBioscience, 85-86042). The cells were then incubated with 50 μl antibody cocktail for 1 hr at room temp. on a microplate shaker (˜300 rpm). After incubating with detection reagent, the result was measured using a SpectraMAX Plus microplate spectrophotometer set at 450 nm.

[6] = test system: AML patient bone marrow leukemic cells; test: Assay 6-I: Flow cytometry analysis of apoptotic induction in AML patient bone marrow leukemic cells; format: cell-based, human
Method: 6-I: Flow cytometry analysis of apoptotic induction in AML patient bone marrow leukemic cells upon compound treatment using Annexin V and 7-AAD staining: Mononuclear cells were extracted by the Ficoll method and seeded in plates. The cells were treated by different compounds for 48 hrs before they were analyzed by flow cytometry. After washing with PBS, 1×10^5 cells were stained by Annexin V-APC and 7-AAD. Annexin V positive staining measures total apoptotic cells, including early and late apoptotic cells. For Annexin V positive cells, 7-AAD negative signal reflects early apoptotic cells.

[7] = test system: PI3Kδ signalling in basophils; test: Assay 4: Inhibition of PI3Kδ signalling in basophils from human whole blood (anti-FcεR1 induced CD63 expression); conditions: read-out: EC50, inhibition of anti-FcεR1 mediated CD63 expression
Method: PI3Kδ signalling in basophils manifested by an alteration of anti-FcεR1 induced CD63 expression is a useful pharmacodynamic marker determined using the Flow2CAST® kit (Buhlmann Laboratories, Switzerland). Briefly, it involves the following steps: • Mix the anti-coagulated blood sample by inverting the venipuncture tube several times • Prepare fresh and pyrogen-free 3.5 ml polypropylene or polystyrene tubes suitable for Flow Cytometry measurements • Add 49 μl of patient's whole blood to each tube. • Add 1 μl of 10% DMSO (background) or compound (10% DMSO) to the assigned tubes and mix gently. Incubate at room temperature for 15 min • Pipette 50 μl of the Stimulation buffer (background) or anti-FcεRI Ab to each tube • Add 100 μl of Stimulation Buffer to each tube • Mix gently. […] (using an incubator will take about 10 minutes longer incubation time due to less efficient heat transfer) • Add 2 ml pre-warmed (18-28° C.) Lysing Reagent to each tube, mix gently • Incubate for 5-10 minutes at 18-28° C. • Centrifuge the tubes for 5 minutes at 500×g • Decant the supernatant by using blotting paper • Resuspend the cell pellet with 300-800 μl of Wash Buffer • Vortex gently and acquire the data on the flow cytometer within the same day. • Percent CD63 positive cells within the gated basophil population are to be determined in different treatment groups and normalized to vehicle control.

CC(C)Oc1ccc(-c2nn([C@@H](C)c3oc4ccccc4c(=O)c3-c3cccc(F)c3)c3ncnc(N)c23)cc1F [Compound A1, (S)-2-(1-(4-amino-3-(3-fluoro-4-isopropoxyphenyl)-1H-pyrazolo[3,4-d]pyrimidin-1-yl)ethyl)-3-(3-fluorophenyl)-4H-chromen-4-one]
Metabolic stability in liver microsomes, Mouse (percent parent compound remaining) [1]: 46.1%
Metabolic stability in liver microsomes, Rat (percent parent compound remaining) [2]: 35.8%
Metabolic stability in liver microsomes, Human (percent parent compound remaining) ([3]; 1 μM test item, 60 minutes, NADPH): 54.5%
fold greater metabolic stability in human liver microsomes than its enantiomer ([3]; A1 vs A2, B1 vs B2): ~5 fold
IC50 (PI3K delta): 13.8 nM
inhibition at 1 µM (PI3K β): 47.9%
Fold-Selectivity PI3Kβ (PI3K β; Enzyme, versus PI3Kδ): >54 fold
inhibition at 1 µM (PI3K γ): 80.6%
Fold-Selectivity PI3Kγ (PI3K γ; Enzyme, versus PI3Kδ): >9 fold
inhibition at 1 µM [4]: 50 to 90%
EC50 (PI3Kδ): < 50 nM
Fold-Selectivity PI3Kα (PI3Kα): >1000 fold
Fold-Selectivity PI3Kβ (PI3Kβ): >30 fold
Fold-Selectivity PI3Kγ (PI3Kγ): >8 fold
AKT phosphorylation (dose dependence) [5]: dose dependent reduction
inhibition at 0.3 µM ([5]; Homo sapiens, Bone marrow cell, 0.3 μM, 48 hrs): > 50%
number of apoptotic cells [6]: concomitant increase in the number of apoptotic cells
fold increase in apoptosis ([6]; 3 μM, 48 hrs): ~1.5 fold increase in appotosis @ 3 μM and
EC50 [7]: ≤ 100 nM
